Consider 15 molecules from US20180186815A1, “PHARMACEUTICAL COMPOSITIONS, METHODS FOR THEIR PREPARATION AND THEIR USE IN THE TREATMENT OF CANCER” (Urifer Ltd., priority 2016, published 2018).

Type in all cases: cell-based
Data set [1] is described as follows: Viability of FS non malignant fibroblastic cells, XTT test. To be noted: FS cells (non-malignant fibroblastic cell line), Control DMSO = 100%, read-out: percentage of viable cells, FS. The method, then: (§1) The effect of the compounds Z522-XXX on the growth profile of cancer cells which express Fer was tested. The cells that were tested were: the colon cancer cell lines HT29 and HCT 116, RKO. The effect of each of the compounds on FS cells, a non malingnant fibroblastic cell line, was also studied.
(§2) Generally, cells were seeded in 96 wells microplates and were left to grow untreated overnight. Each of the compounds was dissolved in DMSO and was then added to each well in a final concentration of 5 μM. The concentration of DMSO in each well was 0.4% v/v. Untreated cells and cells subjected to 0.4% DMSO alone, served as controls. The percentage of viable cells in each well was determined 96 hours after compounds addition, using the XTT test (Berridge, M. V. et al, 2005).
In general terms: Tetrazolium assays rely on reduction of a dye to a coloured formazan, in cell work by metabolically active cells.

Data set [2] deals with colon cancer cell line HT29. The experiment in a line: Growth profile / viability of HT29 colon cancer cells, XTT test. To be noted: Homo sapiens, HT-29, 96 h, Control DMSO = 100%, read-out: percentage of viable cells, HT29. The method, then: as §1, §2
The test system of data set [3] is colon cancer cell line HCT 116. The experiment in a line: Growth profile / viability of HCT116 colon cancer cells, XTT test. To be noted: Homo sapiens, HCT-116, 96 h, Control DMSO = 100%, read-out: percentage of viable cells, HCT116. As to the method: as §1, §2

Where two headings read alike, the source gives them in different places.

As to `CCN(CC)CCN(CC)C(=O)C1CCN(c2nn3cc(-c4ccc(Cl)cc4)nc3s2)CC1` [Compound Z522-0199, 1-[6-(4-chlorophenyl)imidazo[2,1-b][1,3,4]thiadiazol-2-yl]-N-[2-(diethylamino)ethyl]-N-ethylpiperidine-4-carboxamide], the viability at 96 h, 5 µM was found to be 19% in data set [1] (first FS column) and 21% in data set [1] (second FS column). In addition, in data set [2] (second HT29 column), the viability at 5 µM was determined as 1%.
Turning to `CN1CCC(N(C)C(=O)C2CCN(c3nn4cc(-c5ccc(Cl)cc5)nc4s3)CC2)CC1` [Compound Z522-0202, 1-[6-(4-chlorophenyl)imidazo[2,1-b][1,3,4]thiadiazol-2-yl]-N-methyl-N-(1-methylpiperidin-4-yl)piperidine-4-carboxamide], the results for the viability at 96 h, 5 µM in data set [1] (first FS column) and in data set [1] (second FS column) were 73% and 69%, respectively. Further, the viability at 5 µM in data set [3] (first HCT116 column) came to 5%; in data set [2] (first HT29 column), 1%; in data set [2] (second HT29 column), 0%.
Consider `CN(C)CCN1CCN(C(=O)C2CCN(c3nn4cc(-c5ccc(Cl)cc5)nc4s3)CC2)CC1` [Compound Z522-0206], for which the viability at 96 h, 5 µM in data set [1] (first FS column) amounted to 2%; in data set [1] (second FS column) it was 6%. Further, in data set [3] (first HCT116 column), the viability at 5 µM was found to be 1%.
`CN1CCC(N2CCN(C(=O)C3CCN(c4nn5cc(-c6ccc(Cl)cc6)nc5s4)CC3)CC2)CC1` [Compound Z522-0207, 6-(4-chlorophenyl)-2-(4-{[4-(1-methylpiperidin-4-yl)piperazin-1-yl]carbonyl}piperidin-1-yl)imidazo[2,1-b][1,3,4]thiadiazole]: the viability at 96 h, 5 µM came to 3% in data set [1] (first FS column) and 16% in data set [1] (second FS column). In addition, the viability at 5 µM in data set [3] (first HCT116 column) was 0%; in data set [3] (second HCT116 column) it was 4%; in data set [2] (first HT29 column) it was 3%; in data set [2] (second HT29 column) it was 0%.
Regarding `O=C(C1CCN(c2nn3cc(-c4ccc(Cl)cc4)nc3s2)CC1)N1CCCCC1CCN1CCOCC1` (centres unmarked) [Compound Z522-0211, 6-(4-chlorophenyl)-2-(4-{[2-(2-morpholin-4-ylethyl)piperidin-1-yl]carbonyl}piperidin-1-yl)imidazo[2,1-b][1,3,4]thiadiazole], the figures for the viability at 96 h, 5 µM in data set [1] (first FS column) and in data set [1] (second FS column) were 75% and 81%, respectively. The viability at 5 µM was 72% in data set [3] (first HCT116 column), 61% in data set [3] (second HCT116 column), 64% in data set [2] (first HT29 column) and 60% in data set [2] (second HT29 column).
Regarding `O=C(C1CCN(c2nn3cc(-c4ccc(Cl)cc4)nc3s2)CC1)N1CCCCC1CN1CCCC1` (centres unmarked) [Compound Z522-0212, 6-(4-chlorophenyl)-2-(4-{[2-(pyrrolidin-1-ylmethyl)piperidin-1-yl]carbonyl}piperidin-1-yl)imidazo[2,1-b][1,3,4]thiadiazole], the viability at 96 h, 5 µM in data set [1] (second FS column) was determined as 1%. Further, the figures for the viability at 5 µM in data set [3] (first HCT116 column), in data set [2] (first HT29 column) and in data set [2] (second HT29 column) were 2%, 1% and 0%, respectively.
For `CN(C)CCNC(=O)CN1CCN(C(=O)C2CCN(c3nn4cc(-c5ccc(Cl)cc5)nc4s3)CC2)CC1` [Compound Z522-0218, 2-[4-({1-[6-(4-chlorophenyl)imidazo[2,1-b][1,3,4]thiadiazol-2-yl]piperidin-4-yl}carbonyl)piperazin-1-yl]-N-[2-(dimethylamino)ethyl] acetamide], the viability at 96 h, 5 µM in data set [1] (first FS column) amounted to 82%; in data set [1] (second FS column), 84%. Moreover, the viability at 5 µM in data set [3] (first HCT116 column) was determined as 51%; in data set [3] (second HCT116 column) it was 19%; in data set [2] (first HT29 column), 3%; in data set [2] (second HT29 column), 4%.
`CN(C)CCN(Cc1ccco1)C(=O)C1CCN(c2nn3cc(-c4ccc(Cl)cc4)nc3s2)CC1` [Compound Z522-0220, 1-[6-(4-chlorophenyl)imidazo[2,1-b][1,3,4]thiadiazol-2-yl]-N-[2-(dimethylamino)ethyl]-N-(2-furylmethyl)piperidine-4-carboxamide]: the viability at 96 h, 5 µM came to 61% in data set [1] (first FS column) and 49% in data set [1] (second FS column). Further, the viability at 5 µM in data set [3] (first HCT116 column) was determined as 1%; in data set [3] (second HCT116 column), 3%; in data set [2] (first HT29 column) it was 0%.
For the molecule `CCN1CCN(CC2CCN(C(=O)C3CCN(c4nn5cc(-c6ccc(Cl)cc6)nc5s4)CC3)CC2)CC1` [Compound Z522-0221, 6-(4-chlorophenyl)-2-[4-({4-[(4-ethylpiperazin-1-yl)methyl]piperidin-1-yl}carbonyl)piperidin-1-yl]imidazo[2,1-b][1,3,4]thiadiazole], the viability at 5 µM in data set [3] (first HCT116 column) and in data set [3] (second HCT116 column) was 1% throughout.
Turning to `CCN(CC)CCN(CC)C(=O)C1CCN(c2nn3cc(-c4ccc(C(C)C)cc4)nc3s2)CC1` [Compound Z522-0222, N-[2-(diethylamino)ethyl]-N-ethyl-1-[6-(4-isopropylphenyl)imidazo[2,1-b][1,3,4]thiadiazol-2-yl]piperidine-4-carboxamide], the viability at 96 h, 5 µM in data set [1] (first FS column) and in data set [1] (second FS column) was 56% in each case. In addition, the viability at 5 µM in data set [3] (first HCT116 column) came to 1%.
With `CC(C)c1ccc(-c2cn3nc(N4CCC(C(=O)N5CCCN(C)CC5)CC4)sc3n2)cc1` [Compound Z522-0224, 6-(4-isopropylphenyl)-2-{4-[(4-methyl-1,4-diazepan-1-yl)carbonyl]piperidin-1-yl}imidazo[2,1-b][1,3,4]thiadiazole], the viability at 96 h, 5 µM in data set [1] (first FS column) came out at 60%; in data set [1] (second FS column), 67%. The viability at 5 µM in data set [3] (first HCT116 column), in data set [2] (first HT29 column) and in data set [2] (second HT29 column) was 0% throughout.
Consider `CC(C)c1ccc(-c2cn3nc(N4CCC(C(=O)N(C)C5CCN(C)CC5)CC4)sc3n2)cc1` [Compound Z522-0225, 1-[6-(4-isopropylphenyl)imidazo[2,1-b][1,3,4]thiadiazol-2-yl]-N-methyl-N-(1-methylpiperidin-4-yl)piperidine-4-carboxamide], for which the viability at 96 h, 5 µM in data set [1] (first FS column) came to 65%; in data set [1] (second FS column) it was 28%. Also, the viability at 5 µM came to 1% in data set [3] (first HCT116 column) and 0% in data set [3] (second HCT116 column).
As to `CC(C)c1ccc(-c2cn3nc(N4CCC(C(=O)N5CCN(C6CCN(C)CC6)CC5)CC4)sc3n2)cc1` [Compound Z522-0230, 6-(4-isopropylphenyl)-2-(4-{[4-(1-methylpiperidin-4-yl)piperazin-1-yl]carbonyl}piperidin-1-yl)imidazo[2,1-b][1,3,4]thiadiazole], the figures for the viability at 96 h, 5 µM in data set [1] (first FS column) and in data set [1] (second FS column) were 22% and 39%, respectively. The viability at 5 µM came to 2% in data set [3] (first HCT116 column) and 0% in data set [3] (second HCT116 column).
Take `CC(C)c1ccc(-c2cn3nc(N4CCC(C(=O)N5CCCCC5CCN5CCOCC5)CC4)sc3n2)cc1` (centres unmarked) [Compound Z522-0234, 6-(4-isopropylphenyl)-2-(4-{[2-(2-morpholin-4-ylethyl)piperidin-1-yl]carbonyl}piperidin-1-yl)imidazo[2,1-b][1,3,4]thiadiazole]: the viability at 96 h, 5 µM in data set [1] (first FS column) was determined as 62%; in data set [1] (second FS column), 105%. Further, the viability at 5 µM in data set [3] (first HCT116 column) worked out at 60%; in data set [3] (second HCT116 column) it was 54%; in data set [2] (first HT29 column), 12%; in data set [2] (second HT29 column), 7%.
Consider `CC(C)c1ccc(-c2cn3nc(N4CCC(C(=O)N5CCCCC5CN5CCCC5)CC4)sc3n2)cc1` (centres unmarked) [Compound Z522-0235, 6-(4-isopropylphenyl)-2-(4-{[2-(pyrrolidin-1-ylmethyl)piperidin-1-yl]carbonyl}piperidin-1-yl)imidazo[2,1-b][1,3,4]thiadiazole], for which the viability at 96 h, 5 µM in data set [1] (second FS column) turned out to be 14%. Besides, the viability at 5 µM in data set [3] (first HCT116 column) and in data set [3] (second HCT116 column) was 1% in each case.
